Reference: US20120077836A1, “METHODS OF ADMINISTERING (4AR,10AR)-1-N-PROPYL-1,2,3,4,4A,5,10,10A-OCTAHYDROBENZO [G] QUINOLINE-6,7-DIOL AND RELATED COMPOUNDS ACROSS THE ORAL MUCOSA, THE NASAL MUCOSA OR THE SKIN AND PHARMACEUTICAL COMPOSITIONS THEREOF” (priority 2009, published 2012)
Counter-ions that a name gives are not always drawn. Like-named read-outs stand apart in the source and are kept apart here.

Legend:
[1] = test system: reserpinesed rats; assay: Reversal of reserpine-induced hypomotility in rats; type: in vivo, rat; details: for activity count: reserpine 5 mg/kg SC 23-24 h before, over 3 hours
Experimental: Rats weighing ca. 200 g were treated with reserpine (5 mg/kg subcutaneously as a solution in 20% aqueous solutol for which pH was adjusted to 4 with methanesulfonic acid). […] Group 1: treated with 20% ethanol in 0.7% aqueous sodium chloride subcutaneously.

[2] = test system: MPTP treated marmosets; assay: Anti-parkinsonian effects in MPTP-treated common marmosets; type: in vivo, common marmoset; set-up: disability score (120 min) / disability score (180 min) / disability score (240 min) / disability score (300 min) / disability score (360 min) / disability score (420 min) / disability score (60 min): scale not given here
Experimental: The experiments were conducted using 6 MPTP treated marmosets (2.0 mg/kg daily for up to 5 consecutive days dissolved in sterile 0.9% saline solution). All the animals had previously been treated with L-DOPA (12.5 mg/kg p.o., plus carbidopa 12.5 mg/kg p.o.) administered daily for up to 30 days in order to induce dyskinesia. […] Domperidone was administered 60 min before any of the test compounds. Domperidone is an antidopaminergic drug that suppresses nausea and vomiting. Locomotor activity was assessed using test cages that are comprised of 8 photo-electric switches comprised of 8 infra-red beams which are strategically placed in the cage and interruption of a beam is recorded as one count. […] The assessment of motor disability was performed by a trained observer blinded to the treatment.
The dose chosen for this challenge is at the top of the dose response curve for this drug.

[3] = test system: rats with unilateral 6-OHDA lesions; assay: Dyskinesia model with naive 6-OHDA rats (AIMS)
[4] = test system: unilaterally lesioned 6-OHDA rats; type: in vivo, rat
Experimental: Animals were generated as described under example 7. Four groups of animals were dosed with various doses of compound 10 (group 1, 1 microg/kg; group 2, 10 microg/kg; group 3, 25 microg/kg; group 4, 50 microg/kg). In all cases, compound 10 was administered in one of the nostrils in a volume of 20 microL of a solution of the appropriate concentration in 20% ethanol in 0.7% aqueous sodium chloride containing 0.02% ascorbic acid. The drug solution was applied to one of the nostrils and the nose was gently massaged to ensure distribution of the administered solution over the nasal mucosa. The degree of rotation behaviour of the animals was recorded over the next 3 hours.

[5] = test system: rats with unilateral 6-OHDA lesions; assay: Rotation response in 6-OHDA rats after buccal delivery; type: in vivo, rat
[6] = target: T1, human D2 receptor (Homo sapiens, UniProt P14416); assay: D2 cAMP assay; type: cell-based
T1 construct: expressed in transfected cells; host or cells: CHO cells
Experimental: The ability of the compounds to either stimulate or inhibit the D2 receptor mediated inhibition of cAMP formation in CHO cells transfected with the human D2 receptor was measured as follows. Cells were seeded in 96 well plates at a concentration of 8000 cells/well 3 days prior to the experiment. On the day of the experiment the cells were washed once in preheated G buffer (1 mM MgCl2, 0.9 mM CaCl2, 1 mM IBMX in PBS) and the assay was initiated by addition of 100 micro-1 of a mixture of 1 micro-M quinpirole, 10 microM forskolin and test compound in G buffer (antagonism) or 10 micro-M forskolin and test compound in G buffer (agonism).

[7] = test system: rats with unilateral 6-OHDA lesions; assay: Rotation response in 6-OHDA rats after transdermal delivery; type: in vivo, rat
Experimental: We have used rats with unilateral 6-OHDA lesions to assess compound 10 for its ability to induce rotation after transdermal administration [for details on the model, see the description under example 7]. Three groups of six animals were treated with different doses of compound 10 administered transdermally. Compound 10 (24 mg) was suspended in a mixture of 0.02% ascorbic acid and 20% ethanol in saline (9 mL); the resulting suspension was diluted with dimethyl sulfoxide (0.45 mL). The appropriate amount of this formulation was applied to the ears of the animals. The ears were rubbed gently before the rotation response of the animals was assessed over 3 h. […]

[8] = target: T2, human recombinant D1 receptor (Homo sapiens, UniProt P21728); assay: D1 cAMP assay; type: cell-based
T2 construct: expressed in transfected cells
Experimental: The ability of the compounds to either stimulate or inhibit the D1 receptor mediated cAMP formation in CHO cells stably expressing the human recombinant D1 receptor was measured as follows. Cells were seeded in 96-well plates at a concentration of 11000 cells/well 3 days prior to the experiment.

[9] = target: T3, hD5-transfected CHO-Ga16 cells (Homo sapiens, UniProt P21918); assay: D5 assay, intracellular Ca2+ release (FLIPR); type: cell-based
T3 construct: expressed in transfected cells; host or cells: CHO-Ga16 cells

[10] = test system: MPTP/AMPT mouse model; assay: Superiority model, hypomotility in the MPTP/AMPT mouse model; type: in vivo; details: for activity count (0.5-1.5 h): AMPT 250 mg/kg SC
Experimental: MPTP (1-methyl-4-phenyl-1,2,3,6-tetrahydropyridine) is a neurotoxin that causes permanent symptoms of Parkinson's disease by killing certain neurons in the substantia nigra of the brain. It is used to study the disease in monkeys and mice. […] Various compounds (all dosed subcutaneously) were tested for their ability to reverse the motility deficits produced in this model.

[11] = read-out: intrinsic activity (efficacy)

T3 sequence (P21918 whole entry): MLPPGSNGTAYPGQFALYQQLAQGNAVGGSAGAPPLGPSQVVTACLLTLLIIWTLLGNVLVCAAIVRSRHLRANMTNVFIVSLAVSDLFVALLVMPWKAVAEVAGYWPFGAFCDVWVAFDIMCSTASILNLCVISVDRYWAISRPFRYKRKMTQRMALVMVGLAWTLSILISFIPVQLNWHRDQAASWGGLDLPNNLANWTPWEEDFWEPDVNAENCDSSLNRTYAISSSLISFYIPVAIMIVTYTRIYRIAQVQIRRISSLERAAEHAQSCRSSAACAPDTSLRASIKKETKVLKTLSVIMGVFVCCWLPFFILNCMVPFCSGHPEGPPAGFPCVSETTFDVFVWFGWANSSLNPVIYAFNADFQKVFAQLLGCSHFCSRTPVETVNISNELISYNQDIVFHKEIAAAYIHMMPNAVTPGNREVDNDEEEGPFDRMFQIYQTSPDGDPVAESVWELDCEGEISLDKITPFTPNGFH
T1 sequence (P14416 whole entry): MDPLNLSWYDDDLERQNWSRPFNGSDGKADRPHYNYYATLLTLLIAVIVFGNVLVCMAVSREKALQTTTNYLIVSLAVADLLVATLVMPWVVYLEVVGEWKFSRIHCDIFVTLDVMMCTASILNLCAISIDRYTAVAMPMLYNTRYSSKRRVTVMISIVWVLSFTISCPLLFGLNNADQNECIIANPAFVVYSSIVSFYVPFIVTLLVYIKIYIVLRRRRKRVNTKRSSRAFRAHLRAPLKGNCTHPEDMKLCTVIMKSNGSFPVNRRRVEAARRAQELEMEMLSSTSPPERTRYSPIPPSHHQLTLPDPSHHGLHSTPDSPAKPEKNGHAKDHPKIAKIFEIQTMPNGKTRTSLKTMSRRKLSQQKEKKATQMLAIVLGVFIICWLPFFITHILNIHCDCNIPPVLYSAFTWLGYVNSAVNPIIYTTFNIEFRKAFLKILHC
T2 sequence (P21728 whole entry): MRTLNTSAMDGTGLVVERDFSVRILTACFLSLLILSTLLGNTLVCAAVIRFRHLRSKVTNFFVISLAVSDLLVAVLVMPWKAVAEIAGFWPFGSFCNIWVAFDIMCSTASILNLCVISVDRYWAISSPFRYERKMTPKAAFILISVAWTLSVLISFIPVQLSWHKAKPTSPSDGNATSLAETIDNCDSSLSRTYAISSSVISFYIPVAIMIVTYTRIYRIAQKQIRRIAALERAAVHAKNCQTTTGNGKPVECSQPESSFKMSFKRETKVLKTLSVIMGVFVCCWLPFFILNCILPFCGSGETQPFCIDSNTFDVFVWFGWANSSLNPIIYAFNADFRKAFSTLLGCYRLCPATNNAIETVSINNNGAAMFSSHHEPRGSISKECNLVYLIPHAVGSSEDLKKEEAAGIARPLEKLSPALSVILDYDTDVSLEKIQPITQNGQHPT

## CCCN1CCC[C@@H]2Cc3c(ccc(O)c3O)C[C@H]21 [compound 10, (4aR,10aR)-1-n-Propyl-1,2,3,4,4a,5,10,10a-octahydro-benzo[g]quinoline-6,7-diol hydrobromide]
[1]; administered buccally
  reversal of reserpine-induced hypomotility: reversed the hypomotility
[1]; administered subcutaneously
  reversal of reserpine-induced hypomotility: reversed the reserpine-induced hypomotility
[1]; 0.05 mg/kg buccally
  activity count: 378
[1]; 0.10 mg/kg buccally
  activity count: 533
[1]; apomorphine 1 mg/kg SC, compound 10 0.01 mg/kg SC, controls: vehicle 486, reserpine/vehicle 17
  activity count: 308
[2]; 0.001 mg/kg SC
  disability score (60 min): 14.3
  disability score (120 min): 2.3
  disability score (180 min): 2.5
  disability score (240 min): 3.0
  disability score (300 min): 2.5
  disability score (360 min): 6.5
  disability score (420 min): 8.5
[2]; 0.01 mg/kg SC
  disability score (60 min): 10.0
  disability score (120 min): 2.2
  disability score (180 min): 2.0
  disability score (240 min): 2.2
  disability score (300 min): 2.7
  disability score (360 min): 2.3
  disability score (420 min): 2.7
[2]; L-DOPA 12.5 mg/kg p.o., compound 10 0.001 or 0.01 mg/kg SC
  effect on locomotor activity and motor disability: dose-related increase in locomotor activity and reversal of motor disability
[3]; group 1: compound 10 0.0013 mg/kg SC days 1-14, then compound 10 0.0013 mg/kg SC days 15-19
  mean AIM score (day 19): 25
[3]; group 2: L-DOPA/Benserazide 6/15 mg/kg SC days 1-14, then compound 10 0.0013 mg/kg SC days 15-19
  mean AIM score (day 19): 18
[3]; group 3: apomorphine 1 mg/kg SC days 1-14, then compound 10 0.0013 mg/kg SC days 15-19
  mean AIM score (day 19): 39
[3]; once daily SC, scored days 1-12
  dyskinesia score (AIMS): about 30
[4]; group 1, intranasal 1 microg/kg
  mean number of rotations (0-3 h): 401
[4]; group 2, intranasal 10 microg/kg
  mean number of rotations (0-3 h): 691
[4]; group 3, intranasal 25 microg/kg
  mean number of rotations (0-3 h): 1286
[4]; group 4, intranasal 50 microg/kg
  mean number of rotations (0-3 h): 2122
[5]; 0.1 mg/kg buccally
  mean number of rotations over 3 h: 1203
[5]; apomorphine subcutaneous, compound 10 buccal
  induction of rotation: induced circling behavior
[6]
  EC50: 0.11 nM
[6]; [11]
  Emax: 100%
[7]; 0.127 mg/kg transdermally (ears)
  mean number of rotations over 3 h: 482
[7]; 0.254 mg/kg transdermally (ears)
  mean number of rotations over 3 h: 837
[7]; 0.381 mg/kg transdermally (ears)
  mean number of rotations over 3 h: 1448
[7]; transdermal delivery, three dose groups
  induction of circling behavior: induced circling behavior in all three groups
[8]
  EC50: 15.5 nM
[8]; [11]
  Emax: 100%
[9]
  EC50: 0.06 nM
[9]; CHO-Ga16, read-out: intrinsic activity (efficacy)
  Emax: 95%
[10]; MPTP/AMPT mice, all dosed subcutaneously
  reversal of motility deficits: restored locomotion in the mice in a dose-dependent manner
[10]; Table 4c, 0.003 mg/kg SC, controls: vehicle 405, AMPT/vehicle 12
  activity count (0.5-1.5 h): 8
[10]; Table 4c, 0.01 mg/kg SC
  activity count (0.5-1.5 h): 228
[10]; Table 4c, 0.03 mg/kg SC
  activity count (0.5-1.5 h): 440
[10]; Table 4e direct comparison, apomorphine 1 mg/kg SC, pramipexole 1 mg/kg SC, compound 10 0.030 mg/kg SC, controls: vehicle 509, AMPT/vehicle 2
  activity count (0.5-1.5 h): 690
